This note sets out measurements from patent publication US11312716B2, “9H-pyrrolo-dipyridine derivatives” (UCB Biopharma SRL, priority 2015, dated 2022).

The conditions of series [1]: brain homogenate.
Experimental: The Brain free faction was carried out in duplicate at a single concentration of 1 μM after 4 h of equilibrium dialysis.
Male Sprague-Dawley Rat (Harlan, Bresso, Italy) brain homogenate were prepared in PBS, pH 7.4 at 25% w/vy using a Precellys 24-dual tissue homogenizer (BERTIN technologies, Montigny-le-Bretonneux, France).
350 μL PBS pH 7.4 was loaded in the other chamber of the insert. The Red device reusable base counting insert containing insert with both samples and buffer was sealed and incubated during 4 h at 37° C., 300 rpm, on an orbital shaker.
At the end of the incubation, all brain samples were diluted 1:1 with PBS and PBS samples were diluted 1:1 with control brain homogenate. All samples were then diluted 1:3 with an internal standard (dextromethorphan 10 ng/mL in acetonitrile, Sigma, St Louis, United states), mixed and centrifuged 5 min at 3000 rpm at 4° C. Supernatant was diluted 1:2 with 0.1% formic acid in water (Biosolve, Dieuze, France) before analysis by LC/MS/MS. The LC system used was an Agilent 1290 (Agilent, Santa Clara, United states) coupled with a API5000 mass spectrometer (ABSciex, Framingham, United states). The software was analyst 1.5.2. (Agilent, Santa Clara, United states), the analytical column was an Aquity UPLC HSS T3 (30×2.1 mm, 1.8 μm, Waters, Saint-Quentin, France) operated at 40° C. Analysis were performed in the gradient described below. Gradient used for LC MS/MS
The Fu brain (%) was calculated using the following equation Fu brain(%)=(1/(1+((1/((fu homogenate)−1)×D)))×100 Where Fu homogenate=peak area ratio buffer/peak area ratio brain and D=dilution factor of the homogenate.
Another series addresses rat MAO-A enzyme (Rattus norvegicus (Rat), UniProt P21396). In words: Rat MAO-A binding, competition for [3H]Ro 41-1049 in rat cerebral cortex. Conditions: 10 nM [3H]Ro 41-1049. The method, then:
Compound selectivity for Tau protein was assessed as compared to a broad panel of receptors, enzymes and ion channels. Selectivity profiling of 10 μM compounds against a panel of 81 targets (n=1 with data in duplicate) was performed. Compounds affinity for rat MAO-A enzyme was assessed in rat cerebral cortex by competition experiment for 10 nM [^3H]Ro 41-1049 and increasing concentrations of test compounds. Compounds affinity for human MAO-A enzyme (1 μg/assay, Sigma-Aldrich, Diegem, Belgium) was assessed by saturation binding experiment performed as described above with [^3H]compounds.

rat MAO-A enzyme, sequence (P21396 whole entry): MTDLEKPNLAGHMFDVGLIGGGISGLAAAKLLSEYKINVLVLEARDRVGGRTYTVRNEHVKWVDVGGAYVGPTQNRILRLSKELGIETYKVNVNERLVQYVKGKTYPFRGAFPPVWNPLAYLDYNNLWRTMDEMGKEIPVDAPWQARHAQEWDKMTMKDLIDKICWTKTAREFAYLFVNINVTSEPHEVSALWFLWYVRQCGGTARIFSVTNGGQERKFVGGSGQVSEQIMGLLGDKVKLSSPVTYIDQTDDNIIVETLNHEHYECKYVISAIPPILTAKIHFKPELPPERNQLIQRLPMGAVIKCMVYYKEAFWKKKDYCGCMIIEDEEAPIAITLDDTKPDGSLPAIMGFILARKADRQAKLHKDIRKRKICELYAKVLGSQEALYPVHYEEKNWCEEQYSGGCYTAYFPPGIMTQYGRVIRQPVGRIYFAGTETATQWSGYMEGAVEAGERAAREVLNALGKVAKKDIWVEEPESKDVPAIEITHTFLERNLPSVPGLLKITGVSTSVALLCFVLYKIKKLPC

As to “N-methyl-5-(9H-pyrrolo[2,3-b:4,5-c′]dipyridin-7-yl)picolinamide [Example 60]”, the “Fu Rat Brain” value in series [1] is 0.5%. On rat MAO-A enzyme (10 nM test compound), the “Rat MAO-A Binding INHIB 10 nM” value is listed as −3%. For the same substance, the “Rat MAO-A Binding INHIB 100 nM” value on rat MAO-A enzyme (100 nM test compound) is recorded as −1%.
